Laboratory results reported in US8952024B2, “Herbicidal pyrimidone derivatives” (E I du Pont de Nemours and Company, priority 2009, dated 2015).

Columns and labels:
Type in all cases: in vivo
Conditions in all cases: Postemergence
[1] = test system: pigweed (Amaranthus retroflexus); assay: Test B pre-/postemergence plant response
Source text: (§1) Seeds of plant species selected from blackgrass (Alopecurus myosuroides), downy bromegrass (Bromus tectorum), green foxtail (Setaria viridis), Italian ryegrass (Lolium multiflorum), wheat (Triticum aestivum), wild oat (Avena fatua), deadnettle (henbit deadnettle, Lamium amplexicaule), galium (catchweed bedstraw, Galium aparine), bermudagrass (Cynodon dactylon), Surinam grass (Brachiaria decumbens), cocklebur (Xanthium strumarium), corn (Zea mays), large crabgrass (Digitaria sanguinalis), woolly cupgrass (Eriochloa villosa), giant foxtail (Setaria faberii), goosegrass (Eleusine indica), johnsongrass (Sorghum halepense), kochia (Kochia scoparia), lambsquarters (Chenopodium album), morningglory (Ipomoea coccinea), nightshade (eastern black nightshade, Solanum ptycanthum), yellow nutsedge (Cyperus esculentus), pigweed (Amaranthus retroflexus), ragweed (common ragweed, Ambrosia elatior), Russian thistle (Salsola kali), soybean (Glycine max), sunflower (common oilseed sunflower, Helianthus annuus) and velvetleaf (Abutilon theophrasti) were planted into a blend of loam soil and sand and treated preemergence with test compounds formulated in a non-phytotoxic solvent mixture which included a surfactant.
(§2) At the same time, plants selected from these crop and weed species and also winter barley (Hordeum vulgare), canarygrass (Phalaris minor), chickweed (Stellaria media) and windgrass (Apera spica-venti) were planted in pots containing Redi-Earth® planting medium (Scotts Company, 14111 Scottslawn Road, Marysville, Ohio 43041) comprising spaghnum peat moss, vermiculite, wetting agent and starter nutrients and treated with postemergence applications of some of the test chemicals formulated in the same manner. Plants ranged in height from 2 to 18 cm (1- to 4-leaf stage) for postemergence treatments.
(§3) Treated plants and controls were maintained in a greenhouse for 13 to 15 days, after which time all treated plants were visually evaluated and compared to controls. Plant response ratings, summarized in Table B, are based on a scale of 0 to 100 where 0 is no effect and 100 is complete control. A dash (-) response means no test result.

[2] = test system: wild oat (Avena fatua); assay: Test B pre-/postemergence plant response
Source text: as §1, §2, §3

[3] = test system: kochia (Kochia scoparia); assay: Test B pre-/postemergence plant response
Source text: as §1, §2, §3

[4] = test system: goosegrass (Eleusine indica); assay: Test B pre-/postemergence plant response
Source text: as §1, §2, §3

[5] = test system: ragweed (common ragweed, Ambrosia elatior); assay: Test B pre-/postemergence plant response
Source text: as §1, §2, §3

[6] = test system: wheat (Triticum aestivum); assay: Test B pre-/postemergence plant response
Source text: as §1, §2, §3

[7] = test system: soybean (Glycine max); assay: Test B pre-/postemergence plant response
Source text: as §1, §2, §3

[8] = test system: velvetleaf (Abutilon theophrasti); assay: Test B pre-/postemergence plant response
Source text: as §1, §2, §3

[9] = test system: johnsongrass (Sorghum halepense); assay: Test B pre-/postemergence plant response
Source text: as §1, §2, §3

[10] = test system: chickweed (Stellaria media); assay: Test B postemergence plant response
Outline: (§4)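 Visual ratings from 0 (no effect) to 100 (complete control), made against controls 13–15 days after treatment, kept in a greenhouse. Compounds were applied postemergence to potted plants at the 1- to 4-leaf stage (2–18 cm).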

[11] = test system: windgrass (Apera spica-venti); assay: Test B postemergence plant response
Outline: as §4

[12] = test system: canarygrass (Phalaris minor); assay: Test B postemergence plant response
Outline: as §4

[13] = 31 g ai/ha, 0 to 100 scale (0 no effect, 100 complete control)
[14] = 62 g ai/ha, scale 0 to 100 (0 no effect, 100 complete control)
[15] = 250 g ai/ha, scale 0 to 100 (0 no effect, 100 complete control), 13 to 15 days
[16] = 125 g ai/ha, scale 0 to 100 (0 no effect, 100 complete control)
[17] = 125 g ai/ha, scale 0 (no effect) to 100 (complete control), 13 to 15 days

Compound: COCCn1c(-c2cccc(F)c2)ncc(C(=O)C2=C(O)C3CCC(C3)C2=O)c1=O (stereo not shown) [Compound 235]
- Plant response rating, Pigweed [1, 13]: 100
- Plant response rating, Pigweed [1, 14]: 100
- Plant response rating, Pigweed [1, 15]: 100
- Plant response rating, Oat, Wild [2, 13]: 35
- Plant response rating, Oat, Wild [2, 14]: 50
- Plant response rating, Oat, Wild [2, 15]: 95
- Plant response rating, Kochia [3, 13]: 98
- Plant response rating, Kochia [3, 14]: 100
- Plant response rating, Kochia [3, 16]: 100
- Plant response rating, Kochia [3, 15]: 100
- Plant response rating, Goosegrass [4, 13]: 95
- Plant response rating, Goosegrass [4, 14]: 98
- Plant response rating, Goosegrass [4, 16]: 98
- Plant response rating, Goosegrass [4, 15]: 100
- Plant response rating, Ragweed [5, 13]: 98
- Plant response rating, Ragweed [5, 14]: 100
- Plant response rating, Ragweed [5, 15]: 100
- Plant response rating, Wheat [6, 13]: 45
- Plant response rating, Wheat [6, 14]: 80
- Plant response rating, Wheat [6, 15]: 80
- Plant response rating, Soybean [7, 13]: 98
- Plant response rating, Soybean [7, 14]: 100
- Plant response rating, Soybean [7, 15]: 100
- Plant response rating, Velvetleaf [8, 13]: 95
- Plant response rating, Velvetleaf [8, 14]: 100
- Plant response rating, Velvetleaf [8, 15]: 100
- Plant response rating, Johnsongrass [9, 13]: 70
- Plant response rating, Johnsongrass [9, 14]: 80
- Plant response rating, Johnsongrass [9, 16]: 100
- Plant response rating, Johnsongrass [9, 15]: 100
- Plant response rating, Chickweed [10, 13]: 98
- Plant response rating, Chickweed [10, 14]: 100
- Plant response rating, Chickweed [10, 16]: 100
- Plant response rating, Chickweed [10, 15]: 100
- Plant response rating, Windgrass [11, 13]: 85
- Plant response rating, Windgrass [11, 14]: 95
- Plant response rating, Windgrass [11, 15]: 98
- Plant response rating, Canarygrass [12, 13]: 20
- Plant response rating, Canarygrass [12, 14]: 30
- Plant response rating, Canarygrass [12, 16]: 30
- Plant response rating, Canarygrass [12, 15]: 30

Compound: CCCCn1c(-c2cccc(F)c2)ncc(C(=O)C2=C(O)C3CCC(C3)C2=O)c1=O (stereo not shown) [Compound 237]
- Plant response rating, Pigweed [1, 13]: 80
- Plant response rating, Pigweed [1, 14]: 98
- Plant response rating, Pigweed [1, 17]: 100
- Plant response rating, Pigweed [1, 15]: 100
- Plant response rating, Oat, Wild [2, 13]: 40
- Plant response rating, Oat, Wild [2, 14]: 55
- Plant response rating, Oat, Wild [2, 17]: 60
- Plant response rating, Oat, Wild [2, 15]: 90
- Plant response rating, Kochia [3, 13]: 65
- Plant response rating, Kochia [3, 14]: 80
- Plant response rating, Kochia [3, 17]: 100
- Plant response rating, Kochia [3, 15]: 100
- Plant response rating, Goosegrass [4, 13]: 95
- Plant response rating, Goosegrass [4, 14]: 98
- Plant response rating, Goosegrass [4, 17]: 98
- Plant response rating, Goosegrass [4, 15]: 98
- Plant response rating, Ragweed [5, 13]: 95
- Plant response rating, Ragweed [5, 14]: 98
- Plant response rating, Ragweed [5, 17]: 100
- Plant response rating, Ragweed [5, 15]: 100
- Plant response rating, Wheat [6, 13]: 50
- Plant response rating, Wheat [6, 14]: 70
- Plant response rating, Wheat [6, 17]: 85
- Plant response rating, Wheat [6, 15]: 85
- Plant response rating, Soybean [7, 13]: 95
- Plant response rating, Soybean [7, 14]: 100
- Plant response rating, Soybean [7, 17]: 100
- Plant response rating, Soybean [7, 15]: 100
- Plant response rating, Velvetleaf [8, 13]: 85
- Plant response rating, Velvetleaf [8, 14]: 90
- Plant response rating, Velvetleaf [8, 17]: 100
- Plant response rating, Velvetleaf [8, 15]: 100
- Plant response rating, Johnsongrass [9, 13]: 100
- Plant response rating, Johnsongrass [9, 14]: 100
- Plant response rating, Johnsongrass [9, 17]: 100
- Plant response rating, Johnsongrass [9, 15]: 100
- Plant response rating, Chickweed [10, 13]: 90
- Plant response rating, Chickweed [10, 14]: 98
- Plant response rating, Chickweed [10, 17]: 100
- Plant response rating, Chickweed [10, 15]: 100
- Plant response rating, Windgrass [11, 13]: 60
- Plant response rating, Windgrass [11, 14]: 90
- Plant response rating, Windgrass [11, 17]: 98
- Plant response rating, Windgrass [11, 15]: 100
- Plant response rating, Canarygrass [12, 13]: 30
- Plant response rating, Canarygrass [12, 14]: 40
- Plant response rating, Canarygrass [12, 17]: 50
- Plant response rating, Canarygrass [12, 15]: 50

Compound: COCCCn1c(-c2cccc(F)c2)ncc(C(=O)C2=C(O)C3CCC(C3)C2=O)c1=O (stereo not shown) [Compound 238]
- Plant response rating, Pigweed [1, 13]: 100
- Plant response rating, Pigweed [1, 14]: 100
- Plant response rating, Pigweed [1, 17]: 100
- Plant response rating, Pigweed [1, 15]: 100
- Plant response rating, Oat, Wild [2, 13]: 30
- Plant response rating, Oat, Wild [2, 14]: 35
- Plant response rating, Oat, Wild [2, 17]: 50
- Plant response rating, Oat, Wild [2, 15]: 60
- Plant response rating, Kochia [3, 13]: 90
- Plant response rating, Kochia [3, 14]: 98
- Plant response rating, Kochia [3, 17]: 100
- Plant response rating, Kochia [3, 15]: 100
- Plant response rating, Goosegrass [4, 13]: 95
- Plant response rating, Goosegrass [4, 14]: 98
- Plant response rating, Goosegrass [4, 17]: 98
- Plant response rating, Goosegrass [4, 15]: 98
- Plant response rating, Ragweed [5, 13]: 100
- Plant response rating, Ragweed [5, 14]: 100
- Plant response rating, Ragweed [5, 17]: 100
- Plant response rating, Ragweed [5, 15]: 100
- Plant response rating, Wheat [6, 13]: 40
- Plant response rating, Wheat [6, 14]: 45
- Plant response rating, Wheat [6, 17]: 80
- Plant response rating, Wheat [6, 15]: 80
- Plant response rating, Soybean [7, 13]: 98
- Plant response rating, Soybean [7, 14]: 100
- Plant response rating, Soybean [7, 17]: 100
- Plant response rating, Soybean [7, 15]: 100
- Plant response rating, Velvetleaf [8, 13]: 80
- Plant response rating, Velvetleaf [8, 14]: 90
- Plant response rating, Velvetleaf [8, 17]: 100
- Plant response rating, Velvetleaf [8, 15]: 100
- Plant response rating, Johnsongrass [9, 13]: 60
- Plant response rating, Johnsongrass [9, 17]: 98
- Plant response rating, Johnsongrass [9, 15]: 100
- Plant response rating, Chickweed [10, 13]: 80
- Plant response rating, Chickweed [10, 14]: 90
- Plant response rating, Chickweed [10, 17]: 100
- Plant response rating, Chickweed [10, 15]: 100
- Plant response rating, Windgrass [11, 13]: 45
- Plant response rating, Windgrass [11, 14]: 70
- Plant response rating, Windgrass [11, 17]: 85
- Plant response rating, Windgrass [11, 15]: 95
- Plant response rating, Canarygrass [12, 13]: 20
- Plant response rating, Canarygrass [12, 14]: 25
- Plant response rating, Canarygrass [12, 17]: 30
- Plant response rating, Canarygrass [12, 15]: 30
